Tests used:
Mtb H37Rv = type: cell-based, Mycobacterium tuberculosis; conditions: no inhibitor
A549 (lung) = experiment: Mammalian cytotoxicity A549; type: cell-based; conditions: 1% v/v in 0.5% DMSO
J774A.1 (macrophage) = experiment: Mammalian cytotoxicity J774A.1; type: cell-based; conditions: 1% v/v in 0.5% DMSO
HEK-293 (kidney) = experiment: Mammalian cytotoxicity HEK-293; type: cell-based; conditions: 1% v/v in 0.5% DMSO

| Molecule | H37RV MICKAN (Mtb H37Rv) [µg/mL] | cell survival (positive control) (A549 (lung)) [%] | cell survival (positive control) (J774A.1 (macrophage)) [%] | cell survival (positive control) (HEK-293 (kidney)) [%] |
| --- | --- | --- | --- | --- |
| NC[C@H]1O[C@H](O[C@H]2[C@H](O)[C@@H](O[C@H]3O[C@H](CO)[C@@H](O)[C@H](N)[C@H]3O)[C@H](N)C[C@@H]2N)[C@H](O)[C@@H](O)[C@@H]1O [KAN, kanamycin] | <1.25 |  |  |  |
| Triton-X 100 |  | < 5 | < 5 | < 5 |
